The values that follow come from patent US20160143906A1, “EFFICACIOUS TREATMENT OF NSCLC AND PREDICTIVE CLINICAL MARKER OF THE RESPONSIVENESS OF A TUMOUR TO A TREATMENT” (Boehringer Ingelheim International GmbH, priority 2013, published 2016).

Entries after “also recorded” stand apart in the source; their conditions may differ. Read-outs that look alike come from different tables or passages of the source.

The subject of one data set is HT-29. Put plainly: in vivo anti-tumor efficacy, xenograft model HT-29 (colorectal).
The test system of a further data set is PAC-120. Nature of the data set: in vivo anti-tumor efficacy, xenograft model PAC-120 (prostate, hormone-dependent). The following applies: 100 mg/kg/d.
For another data set, the system named is SKOV3. Nature of the data set: in vivo anti-tumor efficacy, xenograft model SKOV3 (ovarian). The following applies: 50 mg/kg/d.
Another data set relates to GS-9L syngeneic rat. Nature of the data set: in vivo anti-tumor efficacy, syngeneic rat tumor model GS-9L (glioblastoma). Conditions: 50 mg/kg/d.
For a further data set, the system named is NCI-H460. Nature of the data set: in vivo anti-tumor efficacy, xenograft model NCI-H460 (lung, non-small-cell). The following applies: 25 mg/kg/d.
The subject of another data set is FaDu. Nature of the data set: in vivo anti-tumor efficacy, xenograft model FaDu (head and neck). Conditions: 100 mg/kg/d.
In data set [1] the test system is locally advanced/metastatic NSCLC. Nature of the data set: Phase 3 clinical study LUME LUNG 1 (nintedanib+docetaxel vs placebo+docetaxel). In kind it is in vivo, human. The text has this: LUME LUNG 1 is a placebo-controlled phase 3 trial investigating nintedanib+docetaxel in patients with locally advanced/metastatic NSCLC progressing after one prior combination regimen.
(§1) In the case of a significant interaction between treatment and a continuous variable, not only the categorisation delivered by the recursive partitioning was investigated but hazard ratios HR (treatment effect) were also globally estimated at different values of the interacting covariate.
(§2) Kaplan-Meier plots and Forrest Plots were further used for the graphical presentation of the results.

In the next data set the test system is NSCLC. Nature of the data set: clinical trial evidence as summarised (progression within 9 months or less after initiation of prior treatment). It counts as in vivo, human.
Another data set deals with Calu-6. Nature of the data set: in vivo anti-tumor efficacy, xenograft model Calu-6 (lung, non-small-cell). Conditions: 50 mg/kg/d.
For the next data set, the system named is Rip-Tag. Put plainly: in vivo anti-tumor efficacy, Rip-Tag model (pancreas, murine transgenic).
The subject of the next data set is advanced NSCLC tumours. Nature of the data set: Phase 3 clinical study LUME LUNG 2 (nintedanib+pemetrexed vs placebo+pemetrexed). It counts as in vivo, human.
Description: Continuation until Progressive Disease (PD) or unacceptable toxicity with nintedanib, placebo, pemetrexed, or a combination thereof, was permitted. […] Primary endpoint was centrally assessed PFS. Secondary endpoints included OS, investigator-assessed PFS, Response Rate (RR), safety, and Quality of Life (QoL). Stepwise selection, using Cox proportional hazards modeling and a recursive partitioning tree, identified baseline variables prognostic for PFS in Arm B (placebo) of LUME LUNG 2. […] These methods were applied to the LUME LUNG 2 Data Monitoring Committee (DMC) dataset, to develop a hypothesis that was tested and validated by three steps: (i) internal confirmation using centrally assessed PFS and internal validation using OS data of the clinical trial LL2; (ii) external validation using the data from the primary analysis of the independent clinical trial LL1 (centrally assessed PFS and internal validation using OS data); and (iii) external validation using the final OS data of the clinical trial LL1.
as §1, §2

A further data set deals with Caki-1. Put plainly: in vivo anti-tumor efficacy, xenograft model Caki-1 (renal). Conditions: 100 mg/kg/d.
Data set [2] deals with tumors with activating EGFR mutations or the Alk translocation. Conditions: monotherapy; non-squamous patients with activating EGFR mutations or Alk translocation; cited from earlier work.
For data set [3], the system named is NSCLC after fast progression on first-line platinum doublet chemotherapy. Conditions: TITAN; fast progressing patients who failed during 1st line platinum containing therapy; cited from earlier work.
Where [4] appears, read: LL1 squamous cell tumour histology.
The mark [5] stands for this setting: LL1 squamous cell, large tumour burden.

In the case of `COC(=O)c1ccc2c(c1)NC(=O)/C2=C(\Nc1ccc(N(C)C(=O)CN2CCN(C)CC2)cc1)c1ccccc1` [nintedanib, 3-Z-[1-(4-(N-((4-methyl-piperazin-1-yl)-methylcarbonyl)-N-methyl-amino)-anilino)-1-phenyl-methylene]-6-methoxycarbonyl-2-indolinone], the “T/C (reduction of tumor size in % of the control)” value is given as “T/C 16% @ 100 mg/kg/d” with HT-29 (HT-29, 100 mg/kg/d); “T/C 34% @ 100 mg/kg/d” in the data set with PAC-120; “T/C 19% @ 50 mg/kg/d” in the data set on SKOV3; “T/C 32% @ 50 mg/kg/d” in the data set with GS-9L syngeneic rat; “T/C 54% @ 25 mg/kg/d” in the data set with NCI-H460; “T/C 11% @ 100 mg/kg/d” in the data set with FaDu. Moreover, the “T/C (reduction of tumor size in % of the control)” value in the data set on Calu-6 was “T/C 24% @ 50 mg/kg/d”; with Caki-1, “T/C 13% @ 100 mg/kg/d”. Moreover, the results for the Efficacy result in the data set with HT-29 (HT-29 large tumors) and with Rip-Tag were “tumor volume reduction” and “interference with tumor”, respectively. Further, the “HR (OS)” value in data set [1] (LL1 adenocarcinoma) turned out to be 0.83; in [1] (LL1 adenocarcinoma, t<9 mo), 0.75; in data set [1] (LL1 all NSCLC patients) it was 0.94; in [1] (setting [4]), 1.01; in [1] (setting [5]), 0.82; in the data set on advanced NSCLC tumours (LL2 adenocarcinoma, t<9 mo), 0.87. In the data set with advanced NSCLC tumours (LL2 all), the “HR (OS)” value is 1.01. Also, the “HR (PFS)” value stood at 0.84 in data set [1] (LL1 adenocarcinoma); 0.68 in data set [1] (LL1 adenocarcinoma, t<9 mo); 0.85 in data set [1] (LL1 all NSCLC patients); 0.83 in data set [1] (setting [4]); 0.71 in [1] (setting [5]); 0.79 in the data set with advanced NSCLC tumours (LL2 adenocarcinoma, t<9 mo). Besides, the “HR (PFS)” value in the data set with advanced NSCLC tumours (LL2 all) turned out to be 0.84. Moreover, the “benefit in fast progressing population with cut-off of 4 or 6 months” value in [1] (LL1 adenocarcinoma, t<4 mo or t<6 mo) is listed as “confirmed”. In addition, the “Improvement of median OS of nintedanib versus placebo” value was “No benefit; also recorded: None (OS)” in data set [1] (setting [4]) and “No difference; also recorded: None (OS)” in the data set with advanced NSCLC tumours (LL2 all). Further, in data set [1] (setting [5]), the “Improvement of median PFS of nintedanib versus placebo” value is given as 0.9 months (PFS). Moreover, the “median PFS” value is 3.5 months in data set [1] (LL1 whole NSCLC patient population, centrally assessed); 4.4 months with advanced NSCLC tumours (LL2 ITT analysis, centrally reviewed PFS); 4.1 months in the data set on advanced NSCLC tumours (LL2 t<9 mo patient population). Moreover, the “improvement in the median of both PFS and OS compared to placebo” value with NSCLC is “superior or equal to one month”; in the data set on NSCLC (adenocarcinoma NSCLC), not below 1.3 months. In addition, in the data set with advanced NSCLC tumours (LL2), the safety result was “no safety issues were identified”. Besides, in the data set with advanced NSCLC tumours (LL2 ITT, versus placebo), the Disease control result is listed as “significantly improved”. In addition, the “median improvement of time to deterioration of cough” value in the data set with advanced NSCLC tumours (LL2 fast progressing patients, nintedanib versus placebo) came out at 3.7 months. Also, the “median OS” value in the data set with advanced NSCLC tumours (LL2 t<9 mo patient population) was 10.6 months.

With `C#Cc1cccc(Nc2ncnc3cc(OCCOC)c(OCCOC)cc23)c1` [erlotinib], in data set [2], the OS improvement entry is “no OS improvements have been observed” and the “median PFS” value is listed as “around 20 months”. The “efficacy in PFS and OS compared to docetaxel or pemetrexed” value in data set [3] is on record as “did not show any superior efficacy”.
